Laboratory results taken from article PMC6148235, “A structural investigation of NRZ mediated apoptosis regulation in zebrafish” (Cell Death & Disease, 2018).
Where a chain is given by its changes, count along the chain named. Residues, ends and D or L forms follow the SMILES beside them. No end group written: not given here.

T1: NRZ R86A (Danio rerio, UniProt Q8UWD5, R86A)
T1 sequence (Q8UWD5 1-148 R86A): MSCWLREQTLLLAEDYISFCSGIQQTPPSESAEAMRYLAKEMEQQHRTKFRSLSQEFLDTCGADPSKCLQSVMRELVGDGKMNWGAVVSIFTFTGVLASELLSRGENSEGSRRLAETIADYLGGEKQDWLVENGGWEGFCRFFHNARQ

T2: NRZ D79A (Danio rerio, UniProt Q8UWD5, D79A)
T2 sequence (Q8UWD5 1-148 D79A): T1 sequence (Q8UWD5 1-148 R86A) with D79A, A86R

T3: wt-NRZ (Danio rerio, UniProt Q8UWD5)
T3 sequence (Q8UWD5 1-148): T1 sequence (Q8UWD5 1-148 R86A) with A86R


Experiments:
[1] = biological target: T1, NRZ R86A; assay: ITC affinity measurement of NRZ: BH3 motif interactions (mutant R86A); assay type: binding, zebrafish (Danio rerio); design: key to NRZ R86A KD: NB: no binding; conditions: MicroCal iTC200, 25 °C, 25 mM HEPES pH 7.5, 150 mM NaCl, 2 mM BME, protein 30 μM, peptide 300 μM, 19 injections of 2.0 μl, means of three replicates with standard error
Description: (§1) NRZ mutants D79A and R86A were codon-optimized and synthesized (Genscript) and subsequently cloned into the pGEX-6P-3 vector (Invitrogen). Expression and purification were performed using the same protocol as for wild-type NRZ.
(§2) Binding affinities were measured by isothermal titration calorimetry (ITC) employing a MicroCal iTC200 system (GE Healthcare) at 25 °C using wt-NRZ, and NRZ mutants D79A and R86A in 25 mM HEPES, pH 7.5, 150 mM NaCl, 2 mM BME at a final concentration of 30 μM as previously described. BH3 motif peptide ligands were used at a concentration of 300 μM and titrated using 19 injections of 2.0 μl of ligand. All affinity measurements were performed in triplicate. Protein concentrations were measured using a Nanodrop UV spectrophotometer (Thermo Scientific, Scoresbury, Australia) at a wavelength of 280 nm. Peptide concentrations were calculated based on the dry peptide weight after synthesis. The zebrafish BH3-motif peptides used were commercially synthesized and were purified to a final purity of 95% (GenScript, Piscataway, New Jersey, US). zBim: […] (UniProt accession code B2KKY9, residues 117–142), zPuma: […] (accession code Q0GKC9, residues 123–148), zBik: […] (accession code Q5RGV6, residues 30–55), zBax: […] (accession code Q9I9N4, residues 52–79), zBid: […] (accession code Q0GKC5, residues 85–112), zBad: […] (accession code A7MCM4, 88–113 residues), zBmf: […] (accession code Q0GKC7, residues 89–114), zNoxa: […] (accession code Q0GKC8, residues 5–30), zBok: […] (accession code Q7T381, residues 60–85), zBeclin: […] (accession code F1RCP1, residues 102–127), zBcl-wav: […] (accession code D2Y5Q2, residues 42–67).

[2] = biological target: T2, NRZ D79A; assay: ITC affinity measurement of NRZ: BH3 motif interactions (mutant D79A); assay type: binding, zebrafish (Danio rerio); design: key to NRZ D79A KD: NB: no binding; conditions: MicroCal iTC200, 25 °C, 25 mM HEPES pH 7.5, 150 mM NaCl, 2 mM BME, protein 30 μM, peptide 300 μM, 19 injections of 2.0 μl, means of three replicates with standard error
Description: as §1, §2

[3] = biological target: T3, wt-NRZ; assay: ITC affinity measurement of NRZ: BH3 motif interactions (wild type); assay type: binding, zebrafish (Danio rerio); conditions: MicroCal iTC200, 25 °C, 25 mM HEPES pH 7.5, 150 mM NaCl, 2 mM BME, NRZ 30 μM, peptide 300 μM, 19 injections of 2.0 μl, means of three replicates with standard error
Description: as §2

[4] = biological target: NRZ D79A (zebrafish (Danio rerio)) (UniProt Q8UWD5); assay: ITC; MicroCal iTC200, 25 °C; NRZ (wt, D79A or R86A) at 30 μM in 25 mM HEPES pH 7.5, 150 mM NaCl, 2 mM BME; BH3 peptide at 300 μM titrated in 19 injections of 2.0 μl; triplicate
[5] = biological target: NRZ R86A (zebrafish (Danio rerio)) (UniProt Q8UWD5); assay: as above
[6] = biological target: NRZ (zebrafish pro-survival Bcl-2 protein), lacking the 28 C-terminal residues (zebrafish (Danio rerio)); assay: as above

Molecule | Kd [1] | Kd [2] | Kd [4] | Kd [5] | further results
CC[C@H](C)[C@H](NC(=O)[C@H](CCC(N)=O)NC(=O)[C@H](CCC(N)=O)NC(=O)[C@H](CC(C)C)NC(=O)[C@H](CS)NC(=O)[C@H](CCC(N)=O)NC(=O)[C@H](C)NC(=O)[C@H](CC(C)C)NC(=O)[C@H](CCCNC(=N)N)NC(=O)[C@H](CCCCN)NC(=O)[C@H](Cc1c[nH]cn1)NC(=O)[C@H](CO)NC(=O)[C@@H]1CCCN1C(=O)[C@H](CC(=O)O)NC(=O)[C@H](CS)NC(=O)[C@H](CC(C)C)NC(=O)[C@@H](N)CCC(=O)O)C(=O)NCC(=O)N[C@@H](CC(=O)O)C(=O)N[C@@H](CCC(=O)O)C(=O)N[C@@H](CC(C)C)C(=O)N[C@@H](CC(=O)O)C(=O)NCC(=O)N[C@@H](CC(N)=O)C(=O)N[C@@H](C)C(=O)N[C@@H](CCC(N)=O)C(=O)N[C@@H](CC(C)C)C(=O)N[C@@H](CCC(N)=O)C(=O)O [Bax] (H-ELCDPSHKRLAQCLQQIGDELDGNAQLQ-OH) | 4.6 ± 0.44 µM | 0.264 ± 0.042 µM |  |  | 
ALPPEMVVARELRRIGDEFNRLYCEA [Bim] | 0.168 ± 0.008 µM | 0.013 ± 0.004 µM |  |  | 
ALWAAKKYGQQLRRMSDEFDKGQMKR [Bad] | 4.8 ± 0.088 µM | 3.33 ± 0.041 µM |  |  | 
AQSVETLIGQKLQLIGDQFYQEHIMH [Bmf] |  |  |  |  | NRZ R86A KD [1]: NB; WT NRZ KD [3]: no detectable affinity and no affinity and NB; NRZ D79A KD [2]: NB
DGGTMENLSRRLKVTSNLFDIMSGQT [Beclin] |  |  |  |  | NRZ R86A KD [1]: NB; WT NRZ KD [3]: no detectable affinity and NB; WT NRZ KD ([3]; listed as Beclin-1): does not bind; NRZ D79A KD [2]: NB
EARAAREMAAELIRIADLLEQSVLSQAA [Bid] |  | 0.22 ± 0.016 µM |  |  | 
EEQAVERVAVQLRTIGDEMNAVFLQR [Puma] | 2.77 ± 0.162 µM | 0.117 ± 0.005 µM |  |  | 
EQTAVVECAQQLRNIGDLLNWKYKLL [Noxa] | 0.51 ± 0.041 µM | 0.335 ± 0.031 µM |  |  | 
LCPAPSRASAALRHAGDELLIRFPIF [Bcl-wav] |  |  |  |  | NRZ R86A KD [1]: ablated; Kd [3]: 3.57 ± 0.162 µM; NRZ D79A KD [2]: ablated
NMRVTQTIGRQLAQIGDEMDNKWRQE [Bik] | 0.017 ± 0.003 µM | 0.014 ± 0.003 µM |  |  | 
LCPAPSRASAALRHAGDELLIRFPIF [zBcl-wav BH3 motif peptide] |  |  |  |  | Kd [6]: 3.57 µM

Second part, led by results:

Kd [1] | Kd [2] | Kd [4] | Kd [5] | Molecule | further results
 |  | 0.117 µM | 2.77 µM | EEQAVERVAVQLRTIGDEMNAVFLQR [zPuma BH3 motif peptide] | 
 |  | 0.335 µM | 0.51 µM | EQTAVVECAQQLRNIGDLLNWKYKLL [zNoxa BH3 motif peptide] | 
 |  | 0.014 µM | 0.017 µM | NMRVTQTIGRQLAQIGDEMDNKWRQE [zBik BH3 motif peptide] | Kd [6]: 0.012 µM
 |  | 0.22 µM |  | EARAAREMAAELIRIADLLEQSVLSQAA [zBid BH3 motif peptide] | Kd [6]: 0.409 µM
 |  | 0.264 µM | 4.6 µM | ELCDPSHKRLAQCLQQIGDELDGNAQLQ [zBax BH3 motif peptide] | 
 |  | 0.013 µM | 0.168 µM | ALPPEMVVARELRRIGDEFNRLYCEA [zBim BH3 motif peptide] | Kd [6]: 0.041 µM
 |  | 3.33 µM | 4.8 µM | ALWAAKKYGQQLRRMSDEFDKGQMKR [zBad BH3 motif peptide] | 
